# Test results reported in ChEMBL document CHEMBL6071153, “Design, synthesis, and evaluation of antitumor activity in Pseudolaric acid B Azole derivatives: Novel and potent angiogenesis inhibitor via regulation of the PI3K/AKT and MAPK mediated HIF-1/VEGF signaling pathway” (Eur J Med Chem, 2024).
# Tested on: SiHa
# Test: Cytotoxicity against human SiHa cells assessed as inhibition of cell growth incubated for 24 hrs under normoxic condition by MTT assay
# Type: functional, cell-based
row,SMILES,IC50 [µM]
1,COC(=O)C1=CC[C@@]23CC[C@@H]([C@@](C)(/C=C/C=C(\C)C(=O)OCc4cn(Cc5ccc(OC)cc5)nn4)OC2=O)[C@@]3(OC(C)=O)CC1,> 30
2,COC(=O)C1=CC[C@@]23CC[C@@H]([C@@](C)(/C=C/C=C(\C)C(=O)OCc4nc(-c5ccc(OC)cc5)no4)OC2=O)[C@@]3(OC(C)=O)CC1,> 30
3,COC(=O)C1=CC[C@@]23CC[C@@H]([C@@](C)(/C=C/C=C(\C)C(=O)OCc4cc(-c5ccccc5)no4)OC2=O)[C@@]3(OC(C)=O)CC1,> 30
4,COC(=O)C1=CC[C@@]23CC[C@@H]([C@@](C)(/C=C/C=C(\C)C(=O)OCc4cn(Cc5ccc(Cl)cc5)nn4)OC2=O)[C@@]3(OC(C)=O)CC1,> 30
5,COC(=O)C1=CC[C@@]23CC[C@@H]([C@@](C)(/C=C/C=C(\C)C(=O)NCc4cn(-c5ccc(Cl)c(Cl)c5)nn4)OC2=O)[C@@]3(OC(C)=O)CC1,> 30
6,COC(=O)C1=CC[C@@]23CC[C@@H]([C@@](C)(/C=C/C=C(\C)C(=O)OCc4nc(-c5ccc(Cl)c(Cl)c5)no4)OC2=O)[C@@]3(OC(C)=O)CC1,> 30
7,COC(=O)C1=CC[C@@]23CC[C@@H]([C@@](C)(/C=C/C=C(\C)C(=O)OCC(=O)Nc4ccc(Cl)cc4)OC2=O)[C@@]3(OC(C)=O)CC1,> 30
8,COC(=O)C1=CC[C@@]23CC[C@@H]([C@@](C)(/C=C/C=C(\C)C(=O)OCc4nc(-c5ccccc5)no4)OC2=O)[C@@]3(OC(C)=O)CC1,> 30
9,COC(=O)C1=CC[C@@]23CC[C@@H]([C@@](C)(/C=C/C=C(\C)C(=O)OCC(=O)Nc4ccc(OC)cc4)OC2=O)[C@@]3(OC(C)=O)CC1,> 30
10,COC(=O)C1=CC[C@@]23CC[C@@H]([C@@](C)(/C=C/C=C(\C)C(=O)OCCn4ncn(-c5ccc(OC)c(OC)c5)c4=O)OC2=O)[C@@]3(OC(C)=O)CC1,> 30
11,COC(=O)C1=CC[C@@]23CC[C@@H]([C@@](C)(/C=C/C=C(\C)C(=O)OCCn4ncn(-c5ccc(Cl)cc5)c4=O)OC2=O)[C@@]3(OC(C)=O)CC1,> 30
12,COC(=O)C1=CC[C@@]23CC[C@@H]([C@@](C)(/C=C/C=C(\C)C(=O)OCC(=O)NCc4cn(-c5ccccc5)nn4)OC2=O)[C@@]3(OC(C)=O)CC1,> 30
13,COC(=O)C1=CC[C@@]23CC[C@@H]([C@@](C)(/C=C/C=C(\C)C(=O)OCc4nc(-c5ccc(Cl)cc5)no4)OC2=O)[C@@]3(OC(C)=O)CC1,> 30
14,COC(=O)C1=CC[C@@]23CC[C@@H]([C@@](C)(/C=C/C=C(\C)C(=O)OCCn4ncn(-c5ccc(F)cc5)c4=O)OC2=O)[C@@]3(OC(C)=O)CC1,> 30
15,COC(=O)C1=CC[C@@]23CC[C@@H]([C@@](C)(/C=C/C=C(\C)C(=O)OCc4cn(Cc5ccc(Cl)c(Cl)c5)nn4)OC2=O)[C@@]3(OC(C)=O)CC1,> 30
16,COC(=O)C1=CC[C@@]23CC[C@@H]([C@@](C)(/C=C/C=C(\C)C(=O)OCCn4ncn(-c5ccccc5)c4=O)OC2=O)[C@@]3(OC(C)=O)CC1,> 30

row,SMILES,IC50 [µM]
1,COC(=O)C1=CC[C@@]23CC[C@@H]([C@@](C)(/C=C/C=C(\C)C(=O)NCc4cn(-c5ccc(F)cc5)nn4)OC2=O)[C@@]3(OC(C)=O)CC1,> 30
2,COC(=O)C1=CC[C@@]23CC[C@@H]([C@@](C)(/C=C/C=C(\C)C(=O)OCc4cn(-c5ccc(OC)cc5)nn4)OC2=O)[C@@]3(OC(C)=O)CC1,> 30
3,COC(=O)C1=CC[C@@]23CC[C@@H]([C@@](C)(/C=C/C=C(\C)C(=O)OCc4cn(Cc5cc(OC)c(OC)c(OC)c5)nn4)OC2=O)[C@@]3(OC(C)=O)CC1,> 30
4,COC(=O)C1=CC[C@@]23CC[C@@H]([C@@](C)(/C=C/C=C(\C)C(=O)OCc4nc(-c5ccc(Cn6cncn6)cc5)no4)OC2=O)[C@@]3(OC(C)=O)CC1,> 30
5,COC(=O)C1=CC[C@@]23CC[C@@H]([C@@](C)(/C=C/C=C(\C)C(=O)OCc4nnc(-c5ccccc5)o4)OC2=O)[C@@]3(OC(C)=O)CC1,> 30
6,COC(=O)C1=CC[C@@]23CC[C@@H]([C@@](C)(/C=C/C=C(\C)C(=O)NCc4cn(-c5ccc(Cl)cc5)nn4)OC2=O)[C@@]3(OC(C)=O)CC1,> 30
7,COC(=O)C1=CC[C@@]23CC[C@@H]([C@@](C)(/C=C/C=C(\C)C(=O)OCc4cn(Cc5ccc(F)cc5)nn4)OC2=O)[C@@]3(OC(C)=O)CC1,> 30
8,COC(=O)C1=CC[C@@]23CC[C@@H]([C@@](C)(/C=C/C=C(\C)C(=O)OCCn4ncn(-c5ccc(Cl)c(Cl)c5)c4=O)OC2=O)[C@@]3(OC(C)=O)CC1,> 30
9,COC(=O)C1=CC[C@@]23CC[C@@H]([C@@](C)(/C=C/C=C(\C)C(=O)OCc4cn(-c5ccc(Cl)cc5)nn4)OC2=O)[C@@]3(OC(C)=O)CC1,> 30
10,COC(=O)C1=CC[C@@]23CC[C@@H]([C@@](C)(/C=C/C=C(\C)C(=O)OCCn4ncn(-c5ccc(OC)cc5)c4=O)OC2=O)[C@@]3(OC(C)=O)CC1,> 30
11,COC(=O)C1=CC[C@@]23CC[C@@H]([C@@](C)(/C=C/C=C(\C)C(=O)OCC(=O)Nc4ccccc4)OC2=O)[C@@]3(OC(C)=O)CC1,> 30
12,COC(=O)C1=CC[C@@]23CC[C@@H]([C@@](C)(/C=C/C=C(\C)C(=O)OCc4cc(-c5ccc(Cl)cc5)no4)OC2=O)[C@@]3(OC(C)=O)CC1,> 30
13,COC(=O)C1=CC[C@@]23CC[C@@H]([C@@](C)(/C=C/C=C(\C)C(=O)NCc4cn(-c5ccc(OC)cc5)nn4)OC2=O)[C@@]3(OC(C)=O)CC1,> 30
14,COC(=O)C1=CC[C@@]23CC[C@@H]([C@@](C)(/C=C/C=C(\C)C(=O)OCC(=O)NCc4cn(-c5ccc(OC)cc5)nn4)OC2=O)[C@@]3(OC(C)=O)CC1,> 30
15,COC(=O)C1=CC[C@@]23CC[C@@H]([C@@](C)(/C=C/C=C(\C)C(=O)OCc4cn(Cc5ccccc5)nn4)OC2=O)[C@@]3(OC(C)=O)CC1,> 30
16,COC(=O)C1=CC[C@@]23CC[C@@H]([C@@](C)(/C=C/C=C(\C)C(=O)OCc4nnc(-c5ccc(Cl)cc5)o4)OC2=O)[C@@]3(OC(C)=O)CC1,> 30

# Tested on: not listed separately
# Test: Inhibition of VEGFR mediated endocytosis in human SiHa cells incubated for 24 hrs under hypoxic condition by ELISA
# Type: cell-based
row,SMILES,IC50 [µM]
1,COC(=O)C1=CC[C@@]23CC[C@@H]([C@@](C)(/C=C/C=C(\C)C(=O)OCc4cn(Cc5ccc(OC)cc5)nn4)OC2=O)[C@@]3(OC(C)=O)CC1,1.75
2,COC(=O)C1=CC[C@@]23CC[C@@H]([C@@](C)(/C=C/C=C(\C)C(=O)OCc4nc(-c5ccc(OC)cc5)no4)OC2=O)[C@@]3(OC(C)=O)CC1,4.16
3,COC(=O)C1=CC[C@@]23CC[C@@H]([C@@](C)(/C=C/C=C(\C)C(=O)OCc4cc(-c5ccccc5)no4)OC2=O)[C@@]3(OC(C)=O)CC1,> 5
4,COC(=O)C1=CC[C@@]23CC[C@@H]([C@@](C)(/C=C/C=C(\C)C(=O)OCc4cn(Cc5ccc(Cl)cc5)nn4)OC2=O)[C@@]3(OC(C)=O)CC1,1.43
5,COC(=O)C1=CC[C@@]23CC[C@@H]([C@@](C)(/C=C/C=C(\C)C(=O)NCc4cn(-c5ccc(Cl)c(Cl)c5)nn4)OC2=O)[C@@]3(OC(C)=O)CC1,> 5
6,COC(=O)C1=CC[C@@]23CC[C@@H]([C@@](C)(/C=C/C=C(\C)C(=O)OCc4nc(-c5ccc(Cl)c(Cl)c5)no4)OC2=O)[C@@]3(OC(C)=O)CC1,3.03
7,COC(=O)C1=CC[C@@]23CC[C@@H]([C@@](C)(/C=C/C=C(\C)C(=O)OCC(=O)Nc4ccc(Cl)cc4)OC2=O)[C@@]3(OC(C)=O)CC1,4.38
8,COC(=O)C1=CC[C@@]23CC[C@@H]([C@@](C)(/C=C/C=C(\C)C(=O)OCc4nc(-c5ccccc5)no4)OC2=O)[C@@]3(OC(C)=O)CC1,2
9,COC(=O)C1=CC[C@@]23CC[C@@H]([C@@](C)(/C=C/C=C(\C)C(=O)OCC(=O)Nc4ccc(OC)cc4)OC2=O)[C@@]3(OC(C)=O)CC1,1.86
10,COC(=O)C1=CC[C@@]23CC[C@@H]([C@@](C)(/C=C/C=C(\C)C(=O)OCCn4ncn(-c5ccc(OC)c(OC)c5)c4=O)OC2=O)[C@@]3(OC(C)=O)CC1,> 5
11,COC(=O)C1=CC[C@@]23CC[C@@H]([C@@](C)(/C=C/C=C(\C)C(=O)OCCn4ncn(-c5ccc(Cl)cc5)c4=O)OC2=O)[C@@]3(OC(C)=O)CC1,1.86
12,COC(=O)C1=CC[C@@]23CC[C@@H]([C@@](C)(/C=C/C=C(\C)C(=O)OCC(=O)NCc4cn(-c5ccccc5)nn4)OC2=O)[C@@]3(OC(C)=O)CC1,2.8
13,COC(=O)C1=CC[C@@]23CC[C@@H]([C@@](C)(/C=C/C=C(\C)C(=O)OCc4nc(-c5ccc(Cl)cc5)no4)OC2=O)[C@@]3(OC(C)=O)CC1,1.51
14,COC(=O)C1=CC[C@@]23CC[C@@H]([C@@](C)(/C=C/C=C(\C)C(=O)OCCn4ncn(-c5ccc(F)cc5)c4=O)OC2=O)[C@@]3(OC(C)=O)CC1,2.38
15,COC(=O)C1=CC[C@@]23CC[C@@H]([C@@](C)(/C=C/C=C(\C)C(=O)OCc4cn(Cc5ccc(Cl)c(Cl)c5)nn4)OC2=O)[C@@]3(OC(C)=O)CC1,2.79
16,COC(=O)C1=CC[C@@]23CC[C@@H]([C@@](C)(/C=C/C=C(\C)C(=O)OCCn4ncn(-c5ccccc5)c4=O)OC2=O)[C@@]3(OC(C)=O)CC1,4.03

row,SMILES,IC50 [µM]
1,COC(=O)C1=CC[C@@]23CC[C@@H]([C@@](C)(/C=C/C=C(\C)C(=O)NCc4cn(-c5ccc(F)cc5)nn4)OC2=O)[C@@]3(OC(C)=O)CC1,4.14
2,COC(=O)C1=CC[C@@]23CC[C@@H]([C@@](C)(/C=C/C=C(\C)C(=O)OCc4cn(-c5ccc(OC)cc5)nn4)OC2=O)[C@@]3(OC(C)=O)CC1,2.18
3,COC(=O)C1=CC[C@@]23CC[C@@H]([C@@](C)(/C=C/C=C(\C)C(=O)OCc4cn(Cc5cc(OC)c(OC)c(OC)c5)nn4)OC2=O)[C@@]3(OC(C)=O)CC1,2.3
4,COC(=O)C1=CC[C@@]23CC[C@@H]([C@@](C)(/C=C/C=C(\C)C(=O)OCc4nc(-c5ccc(Cn6cncn6)cc5)no4)OC2=O)[C@@]3(OC(C)=O)CC1,> 5
5,COC(=O)C1=CC[C@@]23CC[C@@H]([C@@](C)(/C=C/C=C(\C)C(=O)OCc4nnc(-c5ccccc5)o4)OC2=O)[C@@]3(OC(C)=O)CC1,> 5
6,COC(=O)C1=CC[C@@]23CC[C@@H]([C@@](C)(/C=C/C=C(\C)C(=O)NCc4cn(-c5ccc(Cl)cc5)nn4)OC2=O)[C@@]3(OC(C)=O)CC1,3.74
7,COC(=O)C1=CC[C@@]23CC[C@@H]([C@@](C)(/C=C/C=C(\C)C(=O)OCc4cn(Cc5ccc(F)cc5)nn4)OC2=O)[C@@]3(OC(C)=O)CC1,3.89
8,COC(=O)C1=CC[C@@]23CC[C@@H]([C@@](C)(/C=C/C=C(\C)C(=O)OCCn4ncn(-c5ccc(Cl)c(Cl)c5)c4=O)OC2=O)[C@@]3(OC(C)=O)CC1,1.17
9,COC(=O)C1=CC[C@@]23CC[C@@H]([C@@](C)(/C=C/C=C(\C)C(=O)OCc4cn(-c5ccc(Cl)cc5)nn4)OC2=O)[C@@]3(OC(C)=O)CC1,2.15
10,COC(=O)C1=CC[C@@]23CC[C@@H]([C@@](C)(/C=C/C=C(\C)C(=O)OCCn4ncn(-c5ccc(OC)cc5)c4=O)OC2=O)[C@@]3(OC(C)=O)CC1,> 5
11,COC(=O)C1=CC[C@@]23CC[C@@H]([C@@](C)(/C=C/C=C(\C)C(=O)OCC(=O)Nc4ccccc4)OC2=O)[C@@]3(OC(C)=O)CC1,4.03
12,COC(=O)C1=CC[C@@]23CC[C@@H]([C@@](C)(/C=C/C=C(\C)C(=O)OCc4cc(-c5ccc(Cl)cc5)no4)OC2=O)[C@@]3(OC(C)=O)CC1,4.44
13,COC(=O)C1=CC[C@@]23CC[C@@H]([C@@](C)(/C=C/C=C(\C)C(=O)NCc4cn(-c5ccc(OC)cc5)nn4)OC2=O)[C@@]3(OC(C)=O)CC1,5.06
14,COC(=O)C1=CC[C@@]23CC[C@@H]([C@@](C)(/C=C/C=C(\C)C(=O)OCC(=O)NCc4cn(-c5ccc(OC)cc5)nn4)OC2=O)[C@@]3(OC(C)=O)CC1,3.4
15,COC(=O)C1=CC[C@@]23CC[C@@H]([C@@](C)(/C=C/C=C(\C)C(=O)OCc4cn(Cc5ccccc5)nn4)OC2=O)[C@@]3(OC(C)=O)CC1,> 5
16,COC(=O)C1=CC[C@@]23CC[C@@H]([C@@](C)(/C=C/C=C(\C)C(=O)OCc4nnc(-c5ccc(Cl)cc5)o4)OC2=O)[C@@]3(OC(C)=O)CC1,> 5
